Test results from patent publication US9828339B2, “Biphenyl derivatives and methods for preparing same” (DONG-A ST CO., LTD, priority 2013, dated 2017).

Each molecule was assayed against human muscarinic M3 receptor (Homo sapiens (Human), UniProt P20309) (assay: Binding assay on human muscarinic M3 receptor ([3H]-methyl scopolamine displacement)). Settings: membranes overexpressing human M3 receptor, Ki from IC50 by Cheng-Prusoff, read-out: Binding Affinity to M3 Receptor, Ki.
Method: [Experimental Example 1] Binding Assay on Human Muscarinic M3 Receptor
Cell membrane proteins (Perkin Elmer) wherein human muscarinic M3 receptor was overexpressed, [^3H]-methyl scopolamine and test compounds in various concentration were cultured in 0.2 ml of Tris-HCl buffer at 25° C. for 120 minutes. The same was filtered under suction through glass fiber filter (Whatman GF/B), and then the filter was washed 5 times with 1 ml of Tris-HCl buffer. The radioactivity of [^3H]-methyl scopolamine adsorbed on the filter was measured by a liquid scintillation counter. Non-specific binding was evaluated under existence of 5 μM of atropine. Affinity of the compound of the present invention to muscarinic M3 receptor was calculated as the dissociation constant (Ki), which can be calculated from concentration (IC50) of test compounds inhibiting 50% of binding of [^3H]-methyl scopolamine (i.e. labeled ligand) according to Cheng and Prusoff [Cheng and Prusoff, Biochem. Pharmacol., 22, 3099, 1973].

Sequence of human muscarinic M3 receptor (P20309 whole entry): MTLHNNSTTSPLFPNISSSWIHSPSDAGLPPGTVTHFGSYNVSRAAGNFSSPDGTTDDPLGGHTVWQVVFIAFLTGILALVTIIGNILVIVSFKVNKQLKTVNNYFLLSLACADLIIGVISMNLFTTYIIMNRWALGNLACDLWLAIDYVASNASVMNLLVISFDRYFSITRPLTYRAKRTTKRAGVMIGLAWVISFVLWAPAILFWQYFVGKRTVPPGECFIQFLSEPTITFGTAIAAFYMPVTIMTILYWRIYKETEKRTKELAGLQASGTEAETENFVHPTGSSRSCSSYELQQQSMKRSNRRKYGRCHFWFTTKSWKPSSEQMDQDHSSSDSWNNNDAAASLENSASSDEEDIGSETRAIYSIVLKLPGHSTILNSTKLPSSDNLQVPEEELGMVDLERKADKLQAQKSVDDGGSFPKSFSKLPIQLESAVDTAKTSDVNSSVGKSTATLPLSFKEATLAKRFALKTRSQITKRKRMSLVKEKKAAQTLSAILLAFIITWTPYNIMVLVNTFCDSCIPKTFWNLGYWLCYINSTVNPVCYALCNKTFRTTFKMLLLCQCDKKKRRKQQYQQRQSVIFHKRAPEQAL

SMILES | Ki [nM]
CN1CCC[C@H]1COC(=O)Nc1ccc(F)cc1-c1ccc(F)c(F)c1 [Example 171, (S)-(1-methylpyrrolidin-2-yl)methyl (3′,4′,5-trifluoro-[1,1′-biphenyl]-2-yl)carbamate] | 16.9
CCN1CC[C@@H](COC(=O)Nc2ccccc2-c2ccccc2)C1 [Example 102, (R)-(1-ethylpyrrolidin-3-yl)methyl [1,1′-biphenyl]-2-ylcarbamate] | 12.9
COc1ccc(NC(=O)OCCC2CCCN2C)c(-c2ccc(F)c(Cl)c2)c1 (stereo not shown) [Example 65, 2-(1-Methylpyrrolidin-2-yl)ethyl (3′-chloro-4′-fluoro-5-methoxy-[1,1′-biphenyl]-2-yl)carbamate] | 71.3
CN1CCC[C@H]1COC(=O)Nc1ccc(F)cc1-c1cccc(O)c1 [Example 179, (S)-(1-methylpyrrolidin-2-yl)methyl(3′-hydroxy-5-fluoro-[1,1′-biphenyl]-2-yl)carbamate] | 241
Cc1ccc(NC(=O)OCCC2CCCN2C)c(-c2cccc(F)c2)c1 (stereo not shown) [Example 27, 2-(1-methylpyrrolidin-2-yl)ethyl(3′-fluoro-5-methyl-[1,1′-biphenyl]-2-yl)carbamate] | 56.7
CN1CCC[C@H]1COC(=O)Nc1ccc(F)cc1-c1cc(F)cc(Cl)c1 [Example 210, (S)-(1-methylpyrrolidin-2-yl)methyl(3′-chloro-5,5′-difluoro-[1,1′-biphenyl]-2-yl)carbamate] | 4.6
Cc1cccc(-c2cc(F)ccc2NC(=O)OC[C@H]2CCN(C)C2)c1 [Example 94, (S)-(1-methylpyrrolidin-3-yl)methyl (5-fluoro-3′-methyl-[1,1′-biphenyl]-2-yl)carbamate] | 6.18
O=C(Nc1ccccc1-c1cc(F)cc(F)c1)OC[C@@H]1CCNC1 [Example 80, (R)-pyrrolidin-3-ylmethyl-(3′,5′-difluoro-[1,1′-biphenyl]-2-yl)carbamate] | 27.4
CCN1CC[C@H](COC(=O)Nc2ccccc2-c2ccccc2)C1 [Example 103, (S)-(1-ethylpyrrolidin-3-yl)methyl [1,1′-biphenyl]-2-ylcarbamate] | 13
CN1CCCC1CCOC(=O)Nc1ccc(F)cc1-c1cccc(N)c1 (stereo not shown) [Example 46, 2-(1-methylpyrrolidin-2-yl)ethyl(3′-amino-5-fluoro-[1,1′-biphenyl]-2-yl)carbamate] | 37.5
Cc1ccc(NC(=O)OC[C@@H]2CCNC2)c(-c2cccc(F)c2)c1 [Example 87, (R)-pyrrolidin-3-ylmethyl (3′-fluoro-5-methyl-[1,1′-biphenyl]-2-yl)carbamate] | 94.4
COc1ccc(NC(=O)OCCC2CCCN2C)c(-c2cc(F)cc(F)c2)c1 (stereo not shown) [Example 62, 2-(1-Methylpyrrolidin-2-yl)ethyl(3′,5′-difluoro-5-methoxy-[1,1′-biphenyl]-2-yl)carbamate] | > 1000
CN1CC[C@@H](COC(=O)Nc2ccc(F)cc2-c2cccc(N)c2)C1 [Example 133, (R)-(1-methylpyrrolidin-3-yl)methyl(5-fluoro-3′-amino-[1,1′-biphenyl]-2-yl)carbamate] | 34.5
CN1CCCC1CCOC(=O)Nc1ccccc1-c1ccccc1N (stereo not shown) [Example 32, 2-(1-methylpyrrolidin-2-yl)ethyl(2′-amino-[1,1′-biphenyl]-2-yl)carbamate] | > 1000
CN1CCCC1CCOC(=O)Nc1ccc(Cl)cc1-c1cc(F)cc(Cl)c1 (stereo not shown) [Example 72, 2-(1-Methylpyrrolidin-2-yl)ethyl (3′,5-dichloro-5′-fluoro-[1,1′-biphenyl]-2-yl)carbamate] | 58.8
CCOc1cccc(-c2cc(F)ccc2NC(=O)OC[C@@H]2CCCN2C)c1 [Example 219, (S)-(1-methylpyrrolidin-2-yl)methyl(3′-ethoxy-5-fluoro-[1,1′-biphenyl]-2-yl)carbamate] | > 1000
Cc1cccc(-c2cc(F)ccc2NC(=O)OC[C@H]2CCNC2)c1 [Example 83, (S)-pyrrolidin-3-ylmethyl (5-fluoro-3′-methyl-[1,1′-biphenyl]-2-yl)carbamate] | 18.3
CN1CCC[C@H]1COC(=O)Nc1ccc(F)cc1-c1ccccc1 [Example 200, (S)-(1-methylpyrrolidin-2-yl)methyl(5-fluoro-[1,1′-biphenyl]-2-yl)carbamate] | 2.03
Cc1cc(C)cc(-c2cc(F)ccc2NC(=O)OC[C@H]2CCN(C)C2)c1 [Example 122, (S)-(1-methylpyrrolidin-3-yl)methyl(5-fluoro-3′,5′-dimethyl-[1,1′-biphenyl]-2-yl)carbamate] | 87.8
COc1ccc(NC(=O)OC[C@@H]2CCCN2C)c(-c2cccc(F)c2)c1 [Example 223, (S)-(1-methylpyrrolidin-2-yl)methyl(3′-fluoro-5-methoxy-[1,1′-biphenyl]-2-yl)carbamate] | 121

SMILES | Ki [nM]
CN1CC[C@@H](COC(=O)Nc2ccccc2-c2cccc(C#N)c2)C1 [Example 155, (R)-(1-methylpyrrolidin-3-yl)methyl(3′-cyano-[1,1′-biphenyl]-2-yl)carbamate] | > 1000
CN1CCC[C@H]1COC(=O)Nc1ccccc1-c1ccc(F)c(F)c1 [Example 162, (S)-(1-methylpyrrolidin-2-yl)methyl(3′,4′-difluoro-[1,1′-biphenyl]-2-yl)carbamate] | 5.34
Cc1ccc(NC(=O)OC[C@@H]2CCN(C)C2)c(-c2cccc(F)c2)c1 [Example 98, (R)-(1-methylpyrrolidin-3-yl)methyl (3′-fluoro-5-methyl-[1,1′-biphenyl]-2-yl)carbamate] | 46.2
CN1CCC[C@H]1COC(=O)Nc1ccccc1-c1cc(F)c(F)cc1F [Example 163, (S)-(1-methylpyrrolidin-2-yl)methyl (2′,4′,5′-trifluoro-[1,1′-biphenyl]-2-yl)carbamate] | 16.1
CN1CCCC1CCOC(=O)Nc1ccc(F)cc1-c1cc(Cl)cc(Cl)c1 (stereo not shown) [Example 55, 2-(1-methylpyrrolidin-2-yl)ethyl(3′,5′-dichloro-5-fluoro-[1,1′-biphenyl]-2-yl)carbamate] | 38.8
Cc1cc(C)cc(-c2cc(F)ccc2NC(=O)OCCC2CCCN2C)c1 (stereo not shown) [Example 45, 2-(1-methylpyrrolidin-2-yl)ethyl(5-fluoro-3′,5′-dimethyl-[1,1′-biphenyl]-2-yl)carbamate] | 69.6
CN1CC[C@H](COC(=O)Nc2ccccc2-c2cc(F)cc(F)c2)C1 [Example 92, (S)-(1-methylpyrrolidin-3-yl)methyl (3′,5′-difluoro-[1,1′-biphenyl]-2-yl)carbamate] | 10.7
CN(C)c1ccc(-c2ccccc2NC(=O)OCCC2CCCN2C)cc1 (stereo not shown) [Example 30, 2-(1-methylpyrrolidin-2-yl)ethyl(4′-(dimethylamino)-[1,1′-biphenyl]-2-yl)carbamate] | 830
CN1CCCC1CCOC(=O)Nc1ccc(C(F)(F)F)cc1-c1cc(F)cc(F)c1 (stereo not shown) [Example 50, 2-(1-Methylpyrrolidin-2-yl)ethyl (3′,5′-difluoro-5-(trifluoromethyl)-[1,1′-biphenyl]-2-yl)carbamate] | > 1000
CN1CCCC1CCOC(=O)Nc1ccccc1-c1ccc(Cl)cc1 (stereo not shown) [Example 7, 2-(1-methylpyrrolidin-2-yl)ethyl(4′-chloro-[1,1′-biphenyl]-2-yl)carbamate] | 31.8
COc1ccc(-c2cc(F)ccc2NC(=O)OC[C@@H]2CCCN2C)cc1OC [Example 220, (S)-(1-methylpyrrolidin-2-yl)methyl (5-fluoro-3′,4′-dimethoxy-[1,1′-biphenyl]-2-yl)carbamate] | > 1000
CN1CCC[C@H]1COC(=O)Nc1ccc(F)cc1-c1cccc(N)c1 [Example 213, (S)-(1-methylpyrrolidin-2-yl)methyl (3′-amino-5-fluoro-[1,1′-biphenyl]-2-yl)carbamate] | 53
CN1CC[C@@H](COC(=O)Nc2ccccc2-c2cccc(CO)c2)C1 [Example 152, (R)-(1-methylpyrrolidin-3-yl)-methyl (3′-(hydroxymethyl)-[1,1′-biphenyl]-2-yl)carbamate] | 147
CN1CC[C@@H](COC(=O)Nc2ccc(F)cc2-c2cc(O)cc(Cl)c2)C1 [Example 134, (R)-(1-methylpyrrolidin-3-yl)methyl(3′-chloro-5-fluoro-5′-hydroxy-[1,1′-biphenyl]-2-yl)carbamate] | 46.9
COc1ccc(NC(=O)OCCC2CCCN2C)c(-c2cc(Cl)cc(Cl)c2)c1 (stereo not shown) [Example 64, 2-(1-Methylpyrrolidin-2-yl)ethyl(3′,5′-dichloro-5-methoxy-[1,1′-biphenyl]-2-yl)carbamate] | > 1000
CN1CCC[C@H]1COC(=O)Nc1ccc(F)cc1-c1ccc(Cl)cc1Cl [Example 176, (S)-(1-methylpyrrolidin-2-yl)methyl (2′,4′-dichloro-5-fluoro-[1,1′-biphenyl]-2-yl)carbamate] | > 1000
CN1CCCC1CCOC(=O)Nc1cc(F)ccc1-c1ccccc1 (stereo not shown) [Example 23, 2-(1-methylpyrrolidin-2-yl)ethyl(4-fluoro-[1,1′-biphenyl]-2-yl)carbamate] | 6.4
CN1CCCC1CCOC(=O)Nc1ccccc1-c1cccc(O)c1 (stereo not shown) [Example 40, 2-(1-methylpyrrolidin-2-yl)ethyl(3′-hydroxy-[1,1′-biphenyl]-2-yl)carbamate] | 119
CN1CC[C@@H](COC(=O)Nc2ccccc2-c2ccc(C=O)c(F)c2)C1 [Example 74, (R)-(1-methylpyrrolidin-3-yl)methyl (3′-fluoro-4′-formyl-[1,1′-biphenyl]-2-yl)carbamate] | > 1000
CN1CCCC1CCOC(=O)Nc1ccccc1-c1ccccc1Cl (stereo not shown) [Example 35, 2-(1-methylpyrrolidin-2-yl)ethyl(2′-chloro-[1,1′-biphenyl]-2-yl)carbamate] | 435
